Experimental data from patent US20080118980A1, “Estrogen Enhancing Differentiation of Human Mesenchymal Stromal Cells and Adipose-derived Stromal Cells” (The Board of Trustees of the University of Illinois,, priority 2006, published 2008).

Columns and labels:
human bone marrow MSCs = test: Osteogenic differentiation of human bone marrow MSCs modulated by E2 (Example 1); assay type: cell-based
Excerpt: Human bone marrow MSCs were provided by the Center for Gene Therapy of Tulane University. The MSCs were isolated from bone marrow cells donated by a healthy adult volunteer. The passage-1 cells were recovered and expanded by culture in a basic medium composed of DMEM, 10% FBS and 1% antibiotic-antimycotic. Human ASCs were isolated from a healthy person with a lipo-aspirated surgery. The abdomen subcutaneous adipose tissue was finely minced and then digested with 0.075 wt % collagenase type I at 37° C. for 45 min. The cells were then collected by filtration with a cell strainer with pore size of 100 μm diameter. The ASCs were expanded in basic DMEM medium. Upon reaching 80-90% confluence of human MSCs and ASCs, the cells were trypsinized, counted, and subcultured at a density of 10^5 cells/100 mm dish. The cells used for study were passage-2. For osteogenic differentiation, the cells were seeded at a cell density of 10^4 cells/cm2 on 12-well plates and 100-mm petri dishes. Upon reaching 70% confluence, counting as day-0, the cells were exposed to osteogenic differentiation medium supplemented with either 10 nM or 10 pM E2. The osteogenic differentiation medium consisted of basic medium supplemented with 100 nM dexamethasone, 10 mM β-glycerophosphate, and 0.05 mM ascorbic acid-2-phosphate. At the defined time, the cells were collected and analyzed for osteogenic gene expression and differentiation potentials.
The cultured cells in 12-well plates were washed twice with PBS, suspended and lysed in 1% Triton-X100 solution. The collected cells were subsequently homogenized using sonication. The DNA content was determined by a fluorometric assay (Bio-Rad). ALP and calcium content were measured by spectrophotometry with a calorimetric kit according to the manufacturers' instructions (Sigma).
RNA was extracted from differentiated cells using TRizol reagent (Invitrogen). 5 μg of total RNA was converted to single stranded cDNA using a commercial cDNA synthesis kit. Aliquots of the cDNA were amplified with Ampli-Taq DNA polymerase for ALP, osteocalcin (OCN), core binding factor alpha1 (cbfa1), peroxisome proliferator activated receptors gamma (PPARγ)-2, estrogen receptors (ER) alpha (α) and beta (β), and housekeeping gene GAPDH. 40 cycles were used, each consisting of 45 sec of denaturation at 95° C., 45 sec of annealing at 58° C., and 1 min of polymerization at 72° C.

human ASCs = test: Osteogenic differentiation of ASCs modulated by E2 (Example 2); assay type: cell-based
Procedure: Because estrogen receptors (ERs) exist in adipose tissues (Dieudonne et al. (2004) Am J Physiol Cell Physiol. 286:C655-661), it is hypothesized that estrogen can also modulate the differentiation potentials of ASCs. All the experiments using human ASCs were performed under an approved IRB protocol of the University of Illinois at Chicago. Human abdomen subcutaneous adipose tissue was obtained from a healthy person with lipo-aspirated surgery. ASCs were isolated from adipose tissue according to previous studies (Hong et al. (2006) Cells Tissues Organs. 183 (3):133-40). Briefly, adipose tissue was finely minced and then digested with 0.075 wt % collagenase type I (Sigma, St Louis, Mo.) at 37° C. for 45 min with intermittent shaking. The cells were collected by filtration with a cell strainer with pore size of 100 μm diameter (Fisher Scientific, Barrington, Ill.). The harvested cells were cultured in a Dulbecco's Modified Eagle's Medium (DMEM), 15% fetal bovine serum (FBS) and 1% antibiotic-antimycotic at 10^6 cells/100 mm dish. Upon reaching 80-90% confluence, the isolated cells were trypsinized, counted, and subcultured at a density of 10^5 cells/100 mm dish as passage-1. The cells used for study are passage-3.
The basic medium supplemented with 100 nM dexamethasone, 10 mM β-glycerophosphate, and 0.05 mM ascorbic acid-2-phosphate was used to differentiate ASCs into an osteogenic cell lineage. Human ASCs were seeded at a cell density of 10^4 cells/cm^2 on 12-well plates and 100 mm petri dishes. Upon reaching 70% confluence, counting as day-0, the cells were exposed to osteogenic differentiation medium supplemented with different concentrations of E2 (from 10^−8 to 10^−11 M). On day 7, the cells cultured on petri dishes were collected for assessment of gene expressions of osteogenic specific markers and estrogen receptors (ERs) by reverse transcriptase polymerase chain reaction (RT-PCR) analysis. On day 14, the cells cultured in 12-well plates were analyzed for DNA, extracellular matrix, alkaline phosphatase (ALP) activity and calcium content.
On the defined day, cells cultured in 12-well plates were washed twice with phosphate buffered solution (PBS), suspended and lysed in 1% Triton-X100 solution (Sigma, St. Louis, Mo.). The collected cells were subsequently homogenized using sonication (Dismembrator Model 100, Fisher Scientific, Barrington, Ill.). The DNA content in the cells was determined by a fluorometric assay using a spectrofluorometer and DNA quantification kit (Hoechst 33258, Bio-Rad, Hercules, Calif.). The total protein concentrations of lysates were measured by a simple colorimetric assay based on the Bradford dye-binding procedure (Bio-Rad, Hercules, Calif.). The amount of protein was normalized by the unit of DNA.
ALP activity was assessed qualitatively by ALP staining. The cultured cells were fixed in 10% paraformaldehyde and incubated with 120 mM Tris buffer, pH 8.4, containing 0.9 mM Naphtol AS-MX Phosphate (Sigma, St. Louis, Mo.) and 1.8 mM Fast Red TR. After 45 min at room temperature, the cultures were washed with deionized water. Mineral deposition in the extracellular matrix was presented by von Kossa staining. The fixed cells were incubated in 2.5% (w/v) silver nitrate (Sigma, St. Louis, Mo.) solution for 30 min in sunlight. In order to quantify ALP activity and calcium content, cultured cells were washed twice with PBS, suspended and lysed in 0.5 ml of 1% Triton-X100 solution. ALP and calcium content were measured by spectrophotometry with a colorimetric kit according to the manufacturer's instructions (Raichem, San Diego, Calif.).
Total RNA was extracted from the various differentiated cells using TRizol reagent (Invitrogen, Carlsbad, Calif.). Approximately 5 μg of total RNA was converted to single stranded cDNA using a commercial cDNA synthesis kit (Invitrogen, Carlsbad, Calif.). […]

C[C@]12CC[C@@H]3c4ccc(O)cc4CC[C@H]3[C@@H]1CC[C@@H]2O [E2, 17-β estradiol]
calcium content (human bone marrow MSCs; FIG. 2C): significantly increased | ALP activities (human bone marrow MSCs; after 14 days, FIG. 2B): little statistical significance | OCN expression (RT-PCR) (human bone marrow MSCs; day 7, E2 10 nM): only densely expressed | cbfa-1 expression (RT-PCR band) (human bone marrow MSCs; day 7, vs differentiation without estrogen supplement): denser band | PPAR-γ2 expression (RT-PCR) (human bone marrow MSCs; day 7, vs standard osteogenic medium): inhibited | cell proliferation (amount of DNA) during osteogenesis (human bone marrow MSCs; higher dose of E2, FIG. 2A): does not affect | ALP and von Kossa staining (human bone marrow MSCs; osteogenic differentiation medium supplemented with E2 (10 nM or 10 pM)): denser color | OCN expression (RT-PCR) (human ASCs; 7 days, estrogen supplement 10^−8 M): only expressed | ERβ expression (RT-PCR) (human ASCs; 7 days, estrogen supplement 10^−11 M): light bands | ALP and cbfa-1 expression (RT-PCR bands) (human ASCs; 7 days, vs cells grown in the absence of estrogen, FIG. 4): intense bands | staining for ALP and von Kossa (human ASCs; ASCs, osteogenic medium supplemented with E2): Intense staining | ALP activities (human ASCs; E2 10^−9 and 10^−8 M, after 14 days, FIG. 5B): significantly improved | proliferation during osteogenesis (DNA content) (human ASCs; day 14, FIG. 5A): does not increase proliferation | calcium content (mineralization of the extracellular matrix) (human ASCs; day 14, most notably at 10^−8 M, FIG. 5D): significantly increased | protein content (extracellular matrix synthesis) (human ASCs; day 14, normalized by DNA, FIG. 5C): increased
